Assay results: ChEMBL document CHEMBL3751747, “Synthesis and positive inotropic activity evaluation of liguzinediol metabolites” (Bioorg Med Chem Lett, 2016)
Several values for one entry are separate records, joined by “and”; a condition that tells them apart may be missing. Equal values may be shown once.

Tests used:
Heart [1] = assay: Positive inotropic activity in Sprague-Dawley rat heart assessed as left ventricular systolic pressure at 1 umol/L (reference value: 20.7 +/- 7.61 to 25.86 +/- 9.41 mmHg); type: functional, Heart left ventricle
Heart [2] = assay: Positive inotropic activity in Sprague-Dawley rat heart assessed as peak decrease rate of left ventricular pressure at 10 umol/L (reference value: - 756.58 +/- 265.23 to - 831 +/- 313.09 mmHg/s); type: functional, Heart left ventricle
Heart [3] = assay: Positive inotropic activity in Sprague-Dawley rat heart assessed as heart rate at 100 umol/L (reference value: 218.67 +/- 20.62 to 260 +/- 21.81 bpm); type: functional
Heart [4] = assay: Positive inotropic activity in Sprague-Dawley rat heart assessed as left ventricular systolic pressure at 100 umol/L (reference value: 20.7 +/- 7.61 to 25.86 +/- 9.41 mmHg); type: functional, Heart left ventricle
Heart [5] = assay: Positive inotropic activity in Sprague-Dawley rat heart assessed as heart rate at 1 umol/L (reference value: 218.67 +/- 20.62 to 260 +/- 21.81 bpm); type: functional
Heart [6] = assay: Positive inotropic activity in Sprague-Dawley rat heart assessed as heart rate at 10 umol/L (reference value: 218.67 +/- 20.62 to 260 +/- 21.81 bpm); type: functional
Heart [7] = assay: Positive inotropic activity in Sprague-Dawley rat heart assessed as peak decrease rate of left ventricular pressure at 100 umol/L (reference value: - 756.58 +/- 265.23 to - 831 +/- 313.09 mmHg/s); type: functional, Heart left ventricle
Heart [8] = assay: Positive inotropic activity in Sprague-Dawley rat heart assessed as left ventricular diastolic pressure at 100 umol/L (reference value: -0.04 +/- 0.33 to -0.67 +/- 0.69 mmHg); type: functional, Heart left ventricle
Heart [9] = assay: Positive inotropic activity in Sprague-Dawley rat heart assessed as peak rise of left ventricular pressure at 100 umol/L (reference value: 1117.66 +/- 665.76 to 1242.03 +/- 495.72 mmHg/s); type: functional, Heart left ventricle
Heart [10] = assay: Positive inotropic activity in Sprague-Dawley rat heart assessed as left ventricular diastolic pressure at 1 umol/L (reference value: -0.04 +/- 0.33 to -0.67 +/- 0.69 mmHg); type: functional, Heart left ventricle
Heart [11] = assay: Positive inotropic activity in Sprague-Dawley rat heart assessed as peak rise rate of left ventricular pressure at 10 umol/L (reference value: 1117.66 +/- 665.76 to 1242.03 +/- 495.72 mmHg/s); type: functional, Heart left ventricle
Heart [12] = assay: Positive inotropic activity in Sprague-Dawley rat heart assessed as left ventricular systolic pressure at 10 umol/L (reference value: 20.7 +/- 7.61 to 25.86 +/- 9.41 mmHg); type: functional, Heart left ventricle
Heart [13] = assay: Positive inotropic activity in Sprague-Dawley rat heart assessed as left ventricular diastolic pressure at 10 umol/L (reference value: -0.04 +/- 0.33 to -0.67 +/- 0.69 mmHg); type: functional, Heart left ventricle
Heart [14] = assay: Positive inotropic activity in Sprague-Dawley rat heart assessed as peak rise rate of left ventricular pressure at 1 umol/L (reference value: 1117.66 +/- 665.76 to 1242.03 +/- 495.72 mmHg/s); type: functional, Heart left ventricle
Heart [15] = assay: Positive inotropic activity in Sprague-Dawley rat heart assessed as peak decrease rate of left ventricular pressure at 1 umol/L (reference value: - 756.58 +/- 265.23 to - 831 +/- 313.09 mmHg/s); type: functional, Heart left ventricle
[16] = Retention time of the compound by HPLC- MS/MS analysis; type: physicochemical
Heart [17] = assay: Toxicity in Sprague-Dawley rat heart assessed as arrhythmias; settings: in vivo
Heart [18] = assay: Positive inotropic activity in Sprague-Dawley rat heart assessed as increase in peak decrease rate of left ventricular pressure at 1 uM relative to control; type: functional, Heart left ventricle; design: scale not given: the % may be the effect or the level left
Heart [19] = assay: Positive inotropic activity in Sprague-Dawley rat heart assessed as +dP/dtmax; type: functional, tissue-based
Heart [20] = assay: Positive inotropic activity in Sprague-Dawley rat heart assessed as increase in peak decrease rate of left ventricular pressure at 100 uM relative to control; type: functional, Heart left ventricle; design: scale not given: the % may be the effect or the level left
Heart [21] = assay: Positive inotropic activity in Sprague-Dawley rat heart assessed as increase in left ventricular systolic pressure at 10 uM relative to control; type: functional, Heart left ventricle
Heart [22] = assay: Positive inotropic activity in Sprague-Dawley rat heart assessed as increase in peak decrease rate of left ventricular pressure at 10 uM relative to control; type: functional, Heart left ventricle; design: scale not given: the % may be the effect or the level left
Heart [23] = assay: Positive inotropic activity in Sprague-Dawley rat heart assessed as left ventricular systolic pressure; type: functional, tissue-based; settings: Heart left ventricle
Heart [24] = assay: Positive inotropic activity in Sprague-Dawley rat heart assessed as increase in peak rise of left ventricular pressure at 10 uM relative to control; type: functional, Heart left ventricle
Heart [25] = assay: Positive inotropic activity in Sprague-Dawley rat heart assessed as -dP/dtmax; type: functional, tissue-based
Heart [26] = assay: Positive inotropic activity in Sprague-Dawley rat heart assessed as increase in peak rise of left ventricular pressure at 1 uM relative to control; type: functional, Heart left ventricle
Heart [27] = assay: Positive inotropic activity in Sprague-Dawley rat heart assessed as increase in peak rise of left ventricular pressure at 100 uM relative to control; type: functional, Heart left ventricle
Heart [28] = assay: Positive inotropic activity in Sprague-Dawley rat heart assessed as increase in left ventricular systolic pressure at 100 uM relative to control; type: functional, Heart left ventricle
Heart [29] = assay: Positive inotropic activity in Sprague-Dawley rat heart assessed as increase in left ventricular systolic pressure at 1 uM relative to control; type: functional, Heart left ventricle

SMILES | Activity (Heart [1]) [mmHg] | Activity (Heart [2]) [mmHg/s] | Activity (Heart [3]) [bpm] | Activity (Heart [4]) [mmHg] | Activity (Heart [5]) [bpm] | Activity (Heart [6]) [bpm] | Activity (Heart [7]) [mmHg/s] | Activity (Heart [8]) [mmHg] | Activity (Heart [9]) [mmHg/s] | Activity (Heart [10]) [mmHg] | Activity (Heart [11]) [mmHg/s] | Activity (Heart [12]) [mmHg] | Activity (Heart [13]) [mmHg] | Activity (Heart [14]) [mmHg/s] | Activity (Heart [15]) [mmHg/s] | Retention_time [16] | Activity (Heart [17]) | further results
CC(=O)NC(CSCc1nc(C)c(CO)nc1C)C(=O)O (stereo in doubt; 4) | 21.22 | -823.04 | 232.39 | 22.4 | 228.5 | 231.5 | -872.56 | -0.59 | 1199.81 | -0.15 | 1191.76 | 21.69 | -0.7 | 1186.33 | -799.02 | 5.705 min | Non-toxic | 
Cc1nc(CO)c(C)nc1CO |  |  | 238.5 |  | 239.06 | 245.44 |  | -0.34 |  | 0 |  |  | -0.19 |  |  |  | Non-toxic | Activity (Heart [18]): 10.38%; Activity (Heart [19]): Dose-dependent effect; Activity (Heart [20]): 47.83%; Activity (Heart [21]): 32.96%; Activity (Heart [22]): 24.95%; Activity (Heart [23]): Dose-dependent effect; Activity (Heart [24]): 14.75%; Activity (Heart [25]): Dose-dependent effect; Activity (Heart [26]): 4.23%; Activity (Heart [27]): 23.9%; Activity (Heart [28]): 59.4%; Activity (Heart [29]): 17.65%
Cc1nc(C(=O)O)c(C)nc1CO | 26.98 | -892.92 | 246.61 | 28.51 | 259.5 | 252.83 | -904.56 | -0.38 | 1299.82 | -0.24 | 1286.48 | 27.85 | -0.19 | 1267.96 | -865.84 | 3.675 min and 3.637 min | Non-toxic | 
Cc1nc(CO[C@@H]2O[C@H](C(=O)O)[C@@H](O)[C@H](O)[C@H]2O)c(C)nc1CO (stereo in doubt) |  |  |  |  |  |  |  |  |  |  |  |  |  |  |  | 6.71 min |  | 
Cc1nc(CSCC(N)C(=O)O)c(C)nc1CO (stereo in doubt; 3) | 25.02 | -784.9 | 230.67 | 27.42 | 231.39 | 227.72 | -822.39 | -0.24 | 1333.56 | -0.11 | 1296.62 | 25.68 | -0.09 | 1303.47 | -782.91 | 3 min | Non-toxic | 
Cc1nc(CO[C@@H]2O[C@H](C(=O)O)[C@@H](O)[C@H](O)[C@H]2O)c(C)nc1CO (stereo in doubt; 2) | 22.35 | -804.27 | 220.67 | 23.76 | 234.28 | 221.22 | -733.61 | -0.97 | 1127.22 | -0.73 | 1123.44 | 22.66 | -0.76 | 1127.74 | -790.99 | 6.687 min | Non-toxic | 
CC(=O)NC(CSCc1nc(C)c(CO)nc1C)C(=O)O (stereo in doubt) |  |  |  |  |  |  |  |  |  |  |  |  |  |  |  | 5.709 min |  | 
Cc1nc(CSCC(N)C(=O)O)c(C)nc1CO (stereo in doubt) |  |  |  |  |  |  |  |  |  |  |  |  |  |  |  | 2.988 min |  | 
